From patent US9168295B2, “Vaccine peptide combinations” (Circassia Limited, priority 2007, dated 2015) come the findings set out here.

“Also recorded” adds a separate entry of the source. Where two headings read alike, the source gives them in different places. No end group written: not given here.

The data set deals with peripheral blood basophils (PBMC) from cat allergic subjects. The experiment in a line: Histamine release assay and histamine ELISA. To be noted: for frequency of histamine release, in words: comparison among individual peptides. Type of data set: cell-based, human. The procedure: Histamine release from fresh peripheral whole blood from cat allergic subjects was evaluated. Peripheral blood basophils were used as a surrogate for tissue mast cells which were not practical to assay. Blood was incubated in vitro with 9 individual peptides from the sequence of the major cat allergen Fel d 1 (SEQ ID NOS: 1, 2, 3, 4, 5, 6, 7, 11 and 12). These peptides were selected as potential T cell epitopes following peptide-MHC binding assays as explained in Example 1. Additionally, responses to a preferred mixtures of a mixture of 7 peptides identified in Example 1 were analysed. The tested preferred mixture of 7 peptides consisted of the peptides of SEQ ID NOS: 1 to 7. Histamine release in response to whole cat dander allergen extract acted as a positive control.
Peripheral blood mononuclear cells (PBMC) were isolated from the heparinised blood sample obtained from the subject. PBMC's were isolated by Ficoll-Hypaque density gradient separation. Once isolated, the cells were used in the cell proliferation assay, histamine release and ELISA assay and the cytokine release assay.
Assays were performed on PBMC (which contain basophils). Each peptide and combinations of peptides was compared with whole allergen molecules in a histamine release assay. Histamine concentrations were measured by ELISA.
The assay required 3×10^6 PBMC's per subject. The assay was performed using the Immunotech Histamine Release Immunoassay kit according to the manufacturer's instructions. Following the histamine release assay, acylated samples were tested by histamine ELISA. The histamine ELISA used 50 μl of the 100 μl acylated sample generated by the histamine release assay. The remaining 50 μl of sample was retained, by freezing at −20° C. until the data analysis section of the ELISA has been completed. Once the results had been analysed and the ELISA performed in a satisfactory manner, the samples were discarded.
Peptides were assayed for their ability to induce histamine release over a 5 log10 range (10 μg/ml to 1 ng/ml). The concentration range assayed was selected based on theoretical in vivo doses of peptide that may be achieved during therapy. For example, a 10 μg dose of peptide entering a blood volume of 5 litres, would result in a blood concentration of 2 ng/ml (2×10^−6 mg/ml), at the lower end of the histamine release assay dose range. Whole cat dander extract (C.B.F. LETI) was used as a positive control for release over a slightly higher concentration range (100 μg to 10 ng/ml). Single measurements (i.e. not duplicate or triplicate) were performed for each dilution. One duplicate blood sample was assayed for spontaneous histamine release and the mean value of these samples was subtracted from all peptide/allergen results.
After completion of the histamine ELISA, individual histamine levels were determined by interpolation for the standard curve generated in the ELISA assay. Results from samples were adjusted to allow for any dilution of the samples.
Histamine release was considered positive if (a) the highest concentration of peptide alone induced release of 10% or more of the total release value or (b) if two consecutive values were 10% or more of the total release. […] Of these, 6/81 (7.4%) had not positive control release to whole cat allergen extract.
(In general: ELISA stands for enzyme-linked immunosorbent assay.)

In the case of `CC(C)C[C@H](NC(=O)[C@@H](NC(=O)[C@@H](NC(=O)[C@@H]1CCCN1C(=O)[C@H](CC(C)C)NC(=O)[C@H](C)NC(=O)[C@H](CCCCN)NC(=O)[C@H](Cc1ccc(O)cc1)NC(=O)[C@H](CCC(N)=O)NC(=O)[C@H](C)NC(=O)[C@@H](NC(=O)[C@H](CCC(N)=O)NC(=O)[C@@H](N)CCC(=O)O)C(C)C)C(C)C)C(C)C)C(=O)N[C@@H](CCC(=O)O)C(=O)N[C@@H](CC(N)=O)C(=O)N[C@@H](C)C(=O)O` [MLA03, EQVAQYKALPVVLENA], for the setting “of 81 subjects”, the “number of individuals in whom histamine release was detected” value (from here on “number of individuals”) is 6.

With “AVQNTVEDLKLNTLGR [MLA16, AVQNTVEDLKLNTLGR]”, the “frequency of histamine release, in words” value is reported as “most commonly released histamine; also recorded: the most frequent basophil histamine release responses; also recorded: most frequently associated with histamine release; also recorded: caused most frequent release; also recorded: gave the highest histamine release”. Moreover, the “number of individuals” value (of 81 subjects) was determined as 11.

As for “ISSSKDCMGEAVQNTV [MLA15, ISSSKDCMGEAVQNTV]”, the “frequency of histamine release, in words” value was “most commonly released histamine; also recorded: the most frequent basophil histamine release responses; also recorded: gave the highest histamine release”. Moreover, under “individual subject”, the “Comments on histamine release” value is “MLA15 JUST ABOVE THE 10% CUT OFF”. Where the note is “of 81 subjects”, the “number of individuals” value was 7.

“KALPVVLENARILKNCV [MLA04, KALPVVLENARILKNCV]”: the “number of individuals” value (of 81 subjects) came to 6.

Take KENALSVLDKIYTSPL [MLA07]: the “number of individuals” value amounted to 6.

Take “RILKNCVDAKMTEEDKE [MLA05, RILKNCVDAKMTEEDKE]”: the “number of individuals” value amounted to 1.

With “SRVLDGLVMTTISSSK [MLA14, SRVLDGLVMTTISSSK]”, the “number of individuals” value (of 81 subjects) came to 2.

As to “TAMKKIQDCYVENGLI [MLA12, TAMKKIQDCYVENGLI]”, for the setting “of 81 subjects”, the “number of individuals” value is given as 6.
